Legend:
Test in all cases: two-electrode voltage clamp, Xenopus oocytes
Format in all cases: cell-based
AsegIR75p.1/AsegIR8a = molecular target: T1, AsegIR75p.1/AsegIR8a (Agrotis segetum, UniProt Z9OWS8C5E7); settings: agonist; co-expressed with AsegIR8a; -80 mV; pH 7.6; 0.1% DMSO; 100 μM and dose-response
T1 construct: full-length cDNA in pCS2+, cRNA co-injected with AsegIR8a cRNA in Xenopus laevis oocytes; with Ionotropic receptor 8a
T1 sequence (Z9OWS8C5E7 1-676): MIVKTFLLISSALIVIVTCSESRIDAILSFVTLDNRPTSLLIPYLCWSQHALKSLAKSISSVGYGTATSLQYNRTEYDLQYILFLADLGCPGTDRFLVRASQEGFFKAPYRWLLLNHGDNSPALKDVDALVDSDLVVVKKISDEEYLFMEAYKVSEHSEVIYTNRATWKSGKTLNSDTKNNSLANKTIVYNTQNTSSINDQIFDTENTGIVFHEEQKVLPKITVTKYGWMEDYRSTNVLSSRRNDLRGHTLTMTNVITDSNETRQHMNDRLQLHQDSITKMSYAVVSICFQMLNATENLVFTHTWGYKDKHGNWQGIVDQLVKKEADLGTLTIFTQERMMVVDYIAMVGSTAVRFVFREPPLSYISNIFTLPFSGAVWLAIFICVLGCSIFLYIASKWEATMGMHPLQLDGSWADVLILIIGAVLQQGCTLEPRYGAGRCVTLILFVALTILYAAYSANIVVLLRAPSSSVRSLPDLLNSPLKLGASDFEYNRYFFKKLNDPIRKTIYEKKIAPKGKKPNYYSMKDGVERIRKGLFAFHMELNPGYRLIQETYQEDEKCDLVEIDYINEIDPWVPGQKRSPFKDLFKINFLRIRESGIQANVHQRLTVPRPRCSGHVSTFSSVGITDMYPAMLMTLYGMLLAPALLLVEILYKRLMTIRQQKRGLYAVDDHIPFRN

AsegIR75q.1/AsegIR8a [1] = molecular target: T2, AsegIR75q.1/AsegIR8a (Agrotis segetum, UniProt Z9J2I4KL46); settings: agonist, weak; co-expressed with AsegIR8a; -80 mV; pH 7.6; 0.1% DMSO; 100 μM
T2 construct: full-length cDNA in pCS2+, cRNA co-injected with AsegIR8a cRNA in Xenopus laevis oocytes; with Ionotropic receptor 8a
T2 sequence (Z9J2I4KL46 1-637): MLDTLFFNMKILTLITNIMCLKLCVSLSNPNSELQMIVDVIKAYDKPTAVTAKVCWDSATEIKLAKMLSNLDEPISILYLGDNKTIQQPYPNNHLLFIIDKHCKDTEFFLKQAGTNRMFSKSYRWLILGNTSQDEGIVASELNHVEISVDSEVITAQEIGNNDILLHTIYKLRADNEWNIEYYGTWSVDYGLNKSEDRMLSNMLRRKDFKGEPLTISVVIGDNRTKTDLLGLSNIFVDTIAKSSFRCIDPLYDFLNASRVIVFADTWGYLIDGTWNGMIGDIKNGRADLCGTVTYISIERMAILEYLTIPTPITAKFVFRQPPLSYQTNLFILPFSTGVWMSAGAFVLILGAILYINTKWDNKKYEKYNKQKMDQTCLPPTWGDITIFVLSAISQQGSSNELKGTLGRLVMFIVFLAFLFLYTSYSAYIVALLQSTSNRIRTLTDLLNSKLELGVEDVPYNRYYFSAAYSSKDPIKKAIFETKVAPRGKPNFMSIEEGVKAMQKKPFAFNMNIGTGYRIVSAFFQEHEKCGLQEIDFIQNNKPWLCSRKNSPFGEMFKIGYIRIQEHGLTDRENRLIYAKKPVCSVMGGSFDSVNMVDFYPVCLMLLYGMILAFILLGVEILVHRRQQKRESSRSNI

AsegIR75q.1/AsegIR8a [2] = molecular target: T2, AsegIR75q.1/AsegIR8a; settings: agonist; co-expressed with AsegIR8a; -80 mV; pH 7.6; 0.1% DMSO; dose-response

Row | SMILES | two-electrode voltage clamp, Xenopus oocytes (AsegIR75p.1/AsegIR8a) | two-electrode voltage clamp, Xenopus oocytes (AsegIR75q.1/AsegIR8a [1]) | also measured
1 | CC/C=C\CCO [(Z)-3-hexenol] | hexanoic acid, followed by (Z)-3-hexenol, (E)-2-hexenal, and hexanal |  | 
2 | CCCCCCCC=O [octanal] |  | This receptor also responded slightly to heptanoic acid and octanal | 
3 | CCCCCCCCC(=O)O [nonanoic acid] |  |  | threshold concentration (AsegIR75q.1/AsegIR8a [2]): 1 µM
4 | CCCCCC(=O)O [hexanoic acid] | The strongest response was elicited by hexanoic acid |  | 
5 | CCCCCCC(=O)O [heptanoic acid] |  | This receptor also responded slightly to heptanoic acid and octanal | 
